Where “and” joins values, the source holds several entries; their conditions need not be identical. Equal values may be shown once.
How the values were obtained:
[1] = Shake-flask solubility with spectrophotometric measurement in neat deep eutectic solvents; type: physicochemical
Method: (§1) In order to determine the solubility of the three studied phenolic acids in deep eutectic solvents, a very well-established shake-flask method coupled with spectrophotometric measurements was utilized. The initial procedure involved the preparation of various DESs, which was conducted by mixing their HBA and HBD counterparts in a glass vessel and heating the composition until the formation of a transparent, uniform liquid. […] For additional measurements, the DESs were mixed with water in varying proportions, creating aqueous DES systems. Saturated solutions of CAF, SYR, and COU were obtained by adding excess amounts of these compounds to test tubes containing either a neat deep eutectic solvent or its aqueous solution. Such samples were placed in the Orbital Shaker Incubator ES-20/60 from Biosan (Riga, Latvia) and heated for 24 h at 25 °C, 30 °C, 35 °C, and 40 °C (±0.1 °C) with simultaneous mixing at 60 rpm. Before measurements, the samples were filtered using a PTFE syringe filter from Qpore (Dallas, TX, USA) with a 0.22 μm pore size. In order to avoid possible precipitation of the saturated solutions at decreased temperatures, the test tubes, syringes, pipette tips, and filters were kept at a temperature identical to that of the samples. The spectrophotometric measurements required the preparation of calibration curves for the three APIs. This involved the preparation of a stock solution of each compound in methanol, which was later successfully diluted, and the obtained solutions of varying concentrations were measured using an A360 spectrophotometer from AOE Instruments (Shanghai, China). The wavelength range was set to 200-500 nm, and the resolution was 1 nm. The analytical wavelengths were determined to be 324 nm for caffeic acid, 273 nm for syringic acid, and 308 nm for p-coumaric acid. The final regression equations, obtained after averaging three distinct sets of measurements, are collected in Table 2 together with determination coefficients and limits of detection (LOD) and quantification (LOQ) for the calibration curves. The measurements of the samples were conducted with the same spectrophotometer and identical settings. Methanol was used for the dilution of the samples so that they could remain within the linearity range of the method. Complete spectra of the samples were recorded, but for the solubility determination, the absorbance values at a specific analytical wavelength were considered. These values were combined with the corresponding regression equations of the calibration curves and served for the calculation of the concentration of the three phenolic acids in the studied samples. The densities of such samples were also measured, and for this task 1 mL of each sample was weighed to a precision of 0.1 mg using an AS 110 R2.PLUS analytical balance from […] (Radom, Poland). The obtained densities enabled the calculation of mole fractions of CAF, SYR, and COU dissolved in the studied DESs. For each considered system, three distinct measurements were conducted, and the results were averaged.

[2] = Shake-flask solubility with spectrophotometric measurement in aqueous DES mixtures; type: physicochemical; conditions: Bet – TEG 1:2 + water
Method: as §1

Mole fraction solubility ([1]; neat DES Bet - DEG, HBA:HBD molar ratio 1:1, 25 °C): 0.0497±0.0004 mole fraction
Mole fraction solubility ([1]; neat DES Bet - DEG, HBA:HBD molar ratio 1:2, 25 °C): 0.0576±0.0005 mole fraction
Mole fraction solubility ([1]; neat DES Bet - DEG, HBA:HBD molar ratio 1:4, 25 °C): 0.0537±0.0004 mole fraction
Mole fraction solubility ([1]; neat DES Bet - ETG, HBA:HBD molar ratio 1:1, 25 °C): 0.0411±0.0004 mole fraction
Mole fraction solubility ([1]; neat DES Bet - ETG, HBA:HBD molar ratio 1:2, 25 °C): 0.0458±0.0004 mole fraction
Mole fraction solubility ([1]; neat DES Bet - GLY, HBA:HBD molar ratio 1:1, 25 °C): 0.0561±0.0004 mole fraction
Mole fraction solubility ([1]; neat DES Bet - GLY, HBA:HBD molar ratio 1:2, 25 °C): 0.0622±0.0006 mole fraction
Mole fraction solubility ([1]; neat DES Bet - GLY, HBA:HBD molar ratio 1:4, 25 °C): 0.0573±0.0002 mole fraction
Mole fraction solubility ([1]; neat DES Bet - TEG, HBA:HBD molar ratio 1:1, 25 °C): 0.0655±0.0012 mole fraction
Mole fraction solubility ([1]; neat DES Bet - TEG, HBA:HBD molar ratio 1:2, 25 °C): 0.0755±0.0010 mole fraction
Mole fraction solubility ([1]; neat DES Bet - TEG, HBA:HBD molar ratio 1:2, 25 °C, listed as Caffeic acid): 0.0755 mole fraction
Mole fraction solubility ([1]; neat DES Bet - TEG, HBA:HBD molar ratio 1:4, 25 °C): 0.0716±0.0007 mole fraction
Mole fraction solubility ([1]; neat DES ChCl - DEG, HBA:HBD molar ratio 1:1, 25 °C): 0.0584±0.0003 mole fraction
Mole fraction solubility ([1]; neat DES ChCl - DEG, HBA:HBD molar ratio 1:2, 25 °C): 0.0664±0.0005 mole fraction
Mole fraction solubility ([1]; neat DES ChCl - ETG, HBA:HBD molar ratio 1:1, 25 °C): 0.0435±0.0004 mole fraction
Mole fraction solubility ([1]; neat DES ChCl - ETG, HBA:HBD molar ratio 1:2, 25 °C): 0.0494±0.0003 mole fraction
Mole fraction solubility ([1]; neat DES ChCl - ETG, HBA:HBD molar ratio 1:4, 25 °C): 0.0471±0.0003 mole fraction
Mole fraction solubility ([1]; neat DES ChCl - TEG, HBA:HBD molar ratio 1:2, 25 °C): 0.0835 mole fraction
Mole fraction solubility ([2]; x*DES 0.1, 25°C): 0.0077±0.0001 mole fraction
Mole fraction solubility ([2]; x*DES 0.1, 30°C): 0.0087±0.0001 mole fraction
Mole fraction solubility ([2]; x*DES 0.1, 35°C): 0.0101±0.0001 mole fraction
Mole fraction solubility ([2]; x*DES 0.1, 40°C): 0.0121±0.0001 mole fraction
Mole fraction solubility ([2]; x*DES 0.2, 25°C): 0.0155±0.0001 mole fraction
Mole fraction solubility ([2]; x*DES 0.2, 30°C): 0.0195±0.0002 mole fraction
Mole fraction solubility ([2]; x*DES 0.2, 35°C): 0.0203±0.0002 mole fraction
Mole fraction solubility ([2]; x*DES 0.2, 40°C): 0.0243±0.0003 mole fraction
Mole fraction solubility ([2]; x*DES 0.3, 25°C): 0.0243±0.0002 mole fraction
Mole fraction solubility ([2]; x*DES 0.3, 30°C): 0.0271±0.0002 mole fraction
Mole fraction solubility ([2]; x*DES 0.3, 35°C): 0.0318±0.0002 mole fraction
Mole fraction solubility ([2]; x*DES 0.3, 40°C): 0.0377±0.0003 mole fraction
Mole fraction solubility ([2]; x*DES 0.4, 25°C): 0.0343±0.0002 mole fraction
Mole fraction solubility ([2]; x*DES 0.4, 30°C): 0.0379±0.0001 mole fraction
Mole fraction solubility ([2]; x*DES 0.4, 35°C): 0.0450±0.0002 mole fraction
Mole fraction solubility ([2]; x*DES 0.4, 40°C): 0.0538±0.0003 mole fraction
Mole fraction solubility ([2]; x*DES 0.5, 25°C): 0.0432±0.0002 mole fraction
Mole fraction solubility ([2]; x*DES 0.5, 30°C): 0.0476±0.0003 mole fraction
Mole fraction solubility ([2]; x*DES 0.5, 35°C): 0.0565±0.0003 mole fraction
Mole fraction solubility ([2]; x*DES 0.5, 40°C): 0.0690±0.0009 mole fraction
Mole fraction solubility ([2]; x*DES 0.6, 25°C): 0.0543±0.0003 mole fraction
Mole fraction solubility ([2]; x*DES 0.6, 30°C): 0.0601±0.0005 mole fraction
Mole fraction solubility ([2]; x*DES 0.6, 35°C): 0.0703±0.0005 mole fraction
Mole fraction solubility ([2]; x*DES 0.6, 40°C): 0.0870±0.0009 mole fraction
Mole fraction solubility ([2]; x*DES 0.7, 25°C): 0.0659±0.0007 mole fraction
Mole fraction solubility ([2]; x*DES 0.7, 30°C): 0.0737±0.0006 mole fraction
Mole fraction solubility ([2]; x*DES 0.7, 35°C): 0.0862±0.0007 mole fraction
Mole fraction solubility ([2]; x*DES 0.7, 40°C): 0.1046±0.0008 mole fraction
Mole fraction solubility ([2]; x*DES 0.8, 25°C): 0.0797±0.0006 mole fraction
Mole fraction solubility ([2]; x*DES 0.8, 30°C): 0.0901±0.0008 mole fraction
Mole fraction solubility ([2]; x*DES 0.8, 35°C): 0.1042±0.0013 mole fraction
Mole fraction solubility ([2]; x*DES 0.8, 40°C): 0.1253±0.0010 mole fraction
Compound: O=C(O)C=Cc1ccc(O)c(O)c1 [caffeic acid, 3,4-dihydroxycinnamic acid]
Mole fraction solubility ([2]; x*DES 0.9, 25°C): 0.0823 mole fraction and 0.0823±0.0013 mole fraction

From article PMC12564265, “Navigating the Deep Eutectic Solvent Landscape: Experimental and Machine Learning Solubility Explorations of Syringic, p-Coumaric, and Caffeic Acids” (International Journal of Molecular Sciences, 2025)
